Experiments:
[1] = molecular target: T1, CIC-1 channels (Rattus norvegicus, UniProt P35524); assay: Electrophysiological measurement of compound inhibition of CIC-1 in rat muscle (Gm, three micro-electrodes technique); format: cell-based; details: reduction of Gm in fibres of whole rat soleus muscles, approx. 30°C; n = number of experiments
T1 construct: from tissue; host or cells: intact soleus muscle of 12-14-week old Wistar rats
T1 sequence (P35524 1-994): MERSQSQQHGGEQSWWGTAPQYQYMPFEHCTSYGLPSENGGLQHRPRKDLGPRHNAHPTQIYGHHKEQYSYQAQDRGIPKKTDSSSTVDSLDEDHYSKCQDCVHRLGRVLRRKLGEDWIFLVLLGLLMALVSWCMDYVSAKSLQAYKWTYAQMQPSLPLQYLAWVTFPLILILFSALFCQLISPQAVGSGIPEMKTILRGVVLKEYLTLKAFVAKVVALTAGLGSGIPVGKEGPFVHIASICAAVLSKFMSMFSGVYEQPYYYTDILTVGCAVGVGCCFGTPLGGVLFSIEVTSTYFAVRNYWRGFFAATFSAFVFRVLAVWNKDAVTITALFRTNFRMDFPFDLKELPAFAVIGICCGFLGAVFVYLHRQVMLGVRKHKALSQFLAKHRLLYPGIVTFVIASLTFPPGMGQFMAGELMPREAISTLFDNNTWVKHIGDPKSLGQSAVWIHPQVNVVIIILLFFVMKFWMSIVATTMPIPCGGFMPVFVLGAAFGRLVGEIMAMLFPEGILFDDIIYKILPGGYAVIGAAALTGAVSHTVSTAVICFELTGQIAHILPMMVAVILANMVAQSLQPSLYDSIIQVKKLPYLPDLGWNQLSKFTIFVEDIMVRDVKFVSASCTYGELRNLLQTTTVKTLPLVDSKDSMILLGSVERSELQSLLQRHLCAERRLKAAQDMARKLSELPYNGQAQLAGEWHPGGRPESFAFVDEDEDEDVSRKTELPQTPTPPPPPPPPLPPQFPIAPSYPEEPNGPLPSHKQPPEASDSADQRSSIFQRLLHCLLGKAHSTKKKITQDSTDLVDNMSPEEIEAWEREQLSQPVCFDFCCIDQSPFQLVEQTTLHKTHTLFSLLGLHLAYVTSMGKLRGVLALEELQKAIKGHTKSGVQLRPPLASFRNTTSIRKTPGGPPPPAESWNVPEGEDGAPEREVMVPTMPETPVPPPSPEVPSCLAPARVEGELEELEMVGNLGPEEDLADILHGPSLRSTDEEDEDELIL
Source text: Table 2: Inhibition of CIC-1 ion channel using compounds of the invention

[2] = test system: soleus muscles; assay: Measurement of force in an in vitro model: isolated rat nerve-muscle preparation with tubocurarine; details: Rattus norvegicus, 40 min; percentage of initial force restored after 40 mins with 50 µM test compound; tubocurarine (115 nM) for 90 mins; read-out: Point increase
Description: Recovery of force is quantified as the percentage of the force prior to tubocurarine that is recovered by the compound.
The current invention relates to compounds that inhibit CIC-1 ion channels and increase muscle excitability and thereby improve muscle function in clinical conditions where muscle activation is failing. Such conditions result in loss of contractile function of skeletal muscle, weakness and excessive fatigue. In this series of experiments the compounds were tested for their ability to restore contractile function of isolated rat muscle when the neuromuscular transmission had been compromised akin to neuromuscular disorders.
Experimentally, soleus muscles from 4-5 wk old rats were isolated with the motor nerve remaining attached. The nerve-muscle preparations were mounted in experimental setups that enabled electrical stimulation of the motor nerve. Stimulation of the motor nerve led to activation of the muscle fibres and ensuing force production that was recorded.
After mounting the nerve-muscle preparation in the experimental setup, the contractile function of the muscle was initially assessed under the control conditions (Figure 2A). […] The experimental condition mimics the failing neuromuscular transmission in a range of neuromuscular disorders. After addition of tubocurarine the contractile force declined over the next 90 mins to 10-50 % of the control force. 50 µM of the test compound was then added and the contractile force recovered despite the continued presence of tubocurarine. To quantify the ability of the compound to restore force the percentage of the initial force that was restored was determined after 40 mins of compound exposure (Figure 2B) and the point increase is reported in Table 3. Table 3: Percentage increase of initial force that was restored using compounds of the invention

| SMILES | EC50 [1] | activation at 50 µM [2] |
| --- | --- | --- |
| CC(C)[C@H](Oc1ccc(Br)cc1F)C(=O)O [Compound A-27, (2S)-2-(4-bromo-2-fluorophenoxy)-3-methylbutanoic acid] | 4.5 µM | 46% |
| [2H][C@@](CC)(Oc1ccc(Br)cc1)C(=O)O [Compound A-60, (2S)-2-(4-bromophenoxy)(2-^2H)butanoic acid] | 7.5 ± 1 µM | 62% |
| O=C(O)[C@H](CCF)Oc1ccc(Br)cc1 [Compound A-87, (2S)-2-(4-bromophenoxy)-4-fluorobutanoic acid] | 4.5 ± 0.8 µM | 37% |

Reference: patent EP3723745B1, “PHENOXY ACIDS FOR THE TREATMENT OF NEUROMUSCULAR DISORDERS” (NMD Pharma A/S, priority 2017, dated 2019)
